In PMC3601065 (PLoS ONE, 2013):
Where no end group is shown, it is not given here.

How the values were obtained:
HLA-A*0201 = HLA-A*0201 (Homo sapiens, UniProt P04439, D140Y/D185E/D98H/E176V/E277Q/G131W/G231S/I119V/I121R/I166T/I218V/L300P/L318F/N151K/N90K/P208A/P217A/Q86G/Q94H/R138H/R169H/T345S); test: biochemical; type: binding

Sequence	cytotoxicity of peptide-specific CD8^+ T cells (T2 target cells)	IC50 (HLA-A*0201) [nM]
ILDAHSLYL [IL9]	highly cytotoxic	1.3
VLSEWLPVT [VT9]	highly cytotoxic	15
